For six molecules, IC50 results are on record in ChEMBL document CHEMBL6134912, “Novel Piperidine Substituted Pyrazolopyrimidine Derivatives as SGK1 Inhibitors for Treating Cardiovascular Diseases” (ACS Med Chem Lett, 2025).

The assay has as its target T1, Serine/threonine-protein kinase Sgk1 (Homo sapiens, UniProt O00141).
T1 sequence (O00141 whole entry): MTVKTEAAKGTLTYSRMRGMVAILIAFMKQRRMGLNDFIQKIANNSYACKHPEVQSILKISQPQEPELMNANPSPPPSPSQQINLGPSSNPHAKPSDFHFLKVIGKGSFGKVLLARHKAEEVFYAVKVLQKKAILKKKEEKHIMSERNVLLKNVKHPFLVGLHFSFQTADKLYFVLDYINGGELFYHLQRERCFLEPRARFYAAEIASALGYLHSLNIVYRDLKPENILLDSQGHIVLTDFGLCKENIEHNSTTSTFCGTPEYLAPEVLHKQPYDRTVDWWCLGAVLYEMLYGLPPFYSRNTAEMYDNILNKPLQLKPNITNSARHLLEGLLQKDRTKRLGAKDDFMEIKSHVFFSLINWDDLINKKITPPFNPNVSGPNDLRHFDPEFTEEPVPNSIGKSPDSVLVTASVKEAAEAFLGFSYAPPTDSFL
Briefly: Inhibition of GST-tagged human SGK1 using fluorescein labelled ATP-competitive probe by homogeneous time-resolved fluorescence (HTRF) binding assay.
Usually IC50 stands for the concentration that inhibits the measured activity by half. A high value points to weaker potency in that assay. In turn, `Cc1nc(O[C@H]2CC[C@@H](NC3CCC3)CC2)c(C(=O)N[C@@H]2CCCN(c3nn(-c4ccc(C(N)=O)c(F)c4)c4ncnc(N)c34)C2)s1` yielded a concentration for half-maximal inhibition (IC50) of 4 nM.
With `CCC(CC)N[C@H]1CC[C@@H](Oc2nc(C)sc2C(=O)N[C@@H]2CCCN(c3nn(-c4ccc(C(N)=O)c(F)c4)c4ncnc(N)c34)C2)CC1` the figure was 3 nM; with `Cc1nc(O[C@H]2CC[C@@H](NC(C)CO)CC2)c(C(=O)N[C@@H]2CCCN(c3nn(-c4ccc(C(N)=O)c(F)c4)c4ncnc(N)c34)C2)s1` (stereo partly specified), 5 nM; with `Cc1nc(O[C@H]2CC[C@@H](N3CCC3)CC2)c(C(=O)N[C@@H]2CCCN(c3nn(C4=CC(=O)OC4)c4ncnc(N)c34)C2)s1`, 5 nM.
Turning to `COc1cc(C(=O)N[C@@H]2CCCN(c3nn(-c4ccc(S(C)(=O)=O)cc4)c4ncnc(N)c34)C2)ccn1`, the IC50 amounted to 5 nM.
`Cc1nc(O[C@H]2CC[C@@H](N(C)C)CC2)c(C(=O)N[C@@H]2CCCN(c3nn(-c4ccc(C(N)=O)c(F)c4)c4ncnc(N)c34)C2)s1` gave an IC50 of 4 nM.
